Test results: patent US6395896B2, “Pyridazine derivatives, manufacturing method and related composition” (Shiseido Co., Ltd., priority 1999, dated 2002)

Assay: Pigment stabilization effect (sequestering agent combination)
Set-up: key to Sunlight exposure (80 MJ) Appearance: A: No change; B: No almost change; C: Yes change; key to Sunlight exposure (80 MJ) ΔE: color difference ΔE in Lab space vs. color before sunlight exposure
Conditions: amounts wt %
Protocol: First of all, the photostabilization effect and appearance changes of a composition for each pigment were studied by the following evaluation formulation.
Each test sample was prepared. Observation of appearance changes (visual evaluation) and measurement of color difference (ΔE) were carried out for samples exposed to sunlight (around 80 MJ).
Color difference was measured by Lab coordinate system with spectrophotometer. Color difference was calculated based on the color before sunlight exposure. Namely, from the measured value (L1,a1,b1) before sunlight exposure, color difference (ΔE) was calculated by following formula.

[1] = colorant Blue No. 1 0.0001, photostabilizer 0.02 + Sodium metaphosphate 0.03
[2] = colorant Blue No. 1 0.0001, photostabilizer 0.02 + Trisodium ethylenediamine tetraacetate 0.03
[3] = colorant Blue No. 1 0.0001, photostabilizer 0.02 + Trisodium hydroxyethyl ethylenediamine triacetate 0.03
[4] = colorant Blue No. 1 0.0001, photostabilizer 0.02, no sequestering agent
[5] = colorant Green No. 3 0.0001, photostabilizer 0.02 + Sodium metaphosphate 0.03
[6] = colorant Green No. 3 0.0001, photostabilizer 0.02 + Sodium polyphosphate 0.03
[7] = colorant Green No. 3 0.0001, photostabilizer 0.02 + Trisodium ethylenediamine tetraacetate 0.03
[8] = colorant Green No. 3 0.0001, photostabilizer 0.02, no sequestering agent
[9] = colorant Red No. 106 0.0001, photostabilizer 0.02 + Sodium metaphosphate 0.02
[10] = colorant Red No. 106 0.0001, photostabilizer 0.02 + Sodium polyphosphate 0.02
[11] = colorant Red No. 106 0.0001, photostabilizer 0.02 + Trisodium ethylenediamine tetraacetate 0.02
[12] = colorant Red No. 106 0.0001, photostabilizer 0.02, no sequestering agent
[13] = colorant Red No. 213 0.0001, photostabilizer 0.03 + Sodium metaphosphate 0.05
[14] = colorant Red No. 213 0.0001, photostabilizer 0.03 + Trisodium ethylenediamine tetraacetate 0.05
[15] = colorant Red No. 213 0.0001, photostabilizer 0.03 + Trisodium hydroxyethyl ethylenediamine triacetate 0.05
[16] = colorant Red No. 213 0.0001, photostabilizer 0.03, no sequestering agent
[17] = colorant Red No. 227 0.0001, photostabilizer 0.01 + Sodium metaphosphate 0.02
[18] = colorant Red No. 227 0.0001, photostabilizer 0.01 + Trisodium ethylenediamine tetraacetate 0.02
[19] = colorant Red No. 227 0.0001, photostabilizer 0.01 + Trisodium hydroxyethyl ethylenediamine triacetate 0.02
[20] = colorant Red No. 227 0.0001, photostabilizer 0.01, no sequestering agent
[21] = colorant Red No. 401 0.001, photostabilizer 0.02 + Sodium metaphosphate 0.1
[22] = colorant Red No. 401 0.001, photostabilizer 0.02 + Sodium polyphosphate 0.1
[23] = colorant Red No. 401 0.001, photostabilizer 0.03 + Trisodium ethylenediamine tetraacetate 0.1
[24] = colorant Red No. 401 0.001, photostabilizer 0.03, no sequestering agent
[25] = colorant Yellow No. 5 0.001, photostabilizer 0.01 + Sodium metaphosphate 0.02
[26] = colorant Yellow No. 5 0.001, photostabilizer 0.01 + Sodium polyphosphate 0.02
[27] = colorant Yellow No. 5 0.001, photostabilizer 0.01 + Trisodium ethylenediamine tetraacetate 0.02
[28] = colorant Yellow No. 5 0.001, photostabilizer 0.01, no sequestering agent
[29] = colorant Yellow No. 203 0.001, photostabilizer 0.01 + Sodium metaphosphate 0.02
[30] = colorant Yellow No. 203 0.001, photostabilizer 0.01 + Trisodium ethylenediamine tetraacetate 0.02

## Oc1nncc(N2CCOCC2)c1N1CCOCC1 [4,5-Dimorpholino-3-hydroxypyridazine]
[1]
  Sunlight exposure (80 MJ) Appearance: A
  Sunlight exposure (80 MJ) ΔE: 1.00
[2]
  Sunlight exposure (80 MJ) Appearance: A
  Sunlight exposure (80 MJ) ΔE: 1.18
[3]
  Sunlight exposure (80 MJ) Appearance: A
  Sunlight exposure (80 MJ) ΔE: 1.08
[4]
  Sunlight exposure (80 MJ) Appearance: B
  Sunlight exposure (80 MJ) ΔE: 1.74
[5]
  Sunlight exposure (80 MJ) Appearance: A
  Sunlight exposure (80 MJ) ΔE: 0.28
[6]
  Sunlight exposure (80 MJ) Appearance: A
  Sunlight exposure (80 MJ) ΔE: 0.52
[7]
  Sunlight exposure (80 MJ) Appearance: A
  Sunlight exposure (80 MJ) ΔE: 0.48
[8]
  Sunlight exposure (80 MJ) Appearance: B
  Sunlight exposure (80 MJ) ΔE: 0.75
[9]
  Sunlight exposure (80 MJ) Appearance: A
  Sunlight exposure (80 MJ) ΔE: 0.77
[10]
  Sunlight exposure (80 MJ) Appearance: A
  Sunlight exposure (80 MJ) ΔE: 0.85
[11]
  Sunlight exposure (80 MJ) Appearance: A
  Sunlight exposure (80 MJ) ΔE: 0.84
[12]
  Sunlight exposure (80 MJ) Appearance: B
  Sunlight exposure (80 MJ) ΔE: 1.23
[13]
  Sunlight exposure (80 MJ) Appearance: A
  Sunlight exposure (80 MJ) ΔE: 1.38
[14]
  Sunlight exposure (80 MJ) Appearance: A
  Sunlight exposure (80 MJ) ΔE: 1.45
[15]
  Sunlight exposure (80 MJ) Appearance: A
  Sunlight exposure (80 MJ) ΔE: 1.41
[16]
  Sunlight exposure (80 MJ) Appearance: B
  Sunlight exposure (80 MJ) ΔE: 2.12
[17]
  Sunlight exposure (80 MJ) Appearance: B
  Sunlight exposure (80 MJ) ΔE: 0.84
[18]
  Sunlight exposure (80 MJ) Appearance: A
  Sunlight exposure (80 MJ) ΔE: 0.62
[19]
  Sunlight exposure (80 MJ) Appearance: A
  Sunlight exposure (80 MJ) ΔE: 0.58
[20]
  Sunlight exposure (80 MJ) Appearance: B
  Sunlight exposure (80 MJ) ΔE: 0.98
[21]
  Sunlight exposure (80 MJ) Appearance: A
  Sunlight exposure (80 MJ) ΔE: 0.66
[22]
  Sunlight exposure (80 MJ) Appearance: A
  Sunlight exposure (80 MJ) ΔE: 0.78
[23]
  Sunlight exposure (80 MJ) Appearance: A
  Sunlight exposure (80 MJ) ΔE: 0.71
[24]
  Sunlight exposure (80 MJ) Appearance: A
  Sunlight exposure (80 MJ) ΔE: 0.95
[25]
  Sunlight exposure (80 MJ) Appearance: A
  Sunlight exposure (80 MJ) ΔE: 0.36
[26]
  Sunlight exposure (80 MJ) Appearance: A
  Sunlight exposure (80 MJ) ΔE: 0.33
[27]
  Sunlight exposure (80 MJ) Appearance: A
  Sunlight exposure (80 MJ) ΔE: 0.32
[28]
  Sunlight exposure (80 MJ) Appearance: B
  Sunlight exposure (80 MJ) ΔE: 0.61
[29]
  Sunlight exposure (80 MJ) Appearance: A
  Sunlight exposure (80 MJ) ΔE: 0.22
[30]
  Sunlight exposure (80 MJ) Appearance: A
  Sunlight exposure (80 MJ) ΔE: 0.28
